Like-named read-outs stand apart in the source and are kept apart here.
Assays:
[1] = target: human recombinant BACE1 (Homo sapiens (Human), UniProt P56817); test: In vitro enzymatic BACE1 FRET assay; format: biochemical; settings: read-out: IC50 IP (μM) BACE1 enzyme
How it was run: (§1)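 Ni-NTA-purified recombinant protease incubated with compound; reaction started with 50 nM FRET peptide substrate (fluorophore/quencher flanking the BACE cleavage site) and run 1 h. Stopped with Tris buffer raising pH to neutral; fluorescence read at ex 488/em 590 nm.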

[2] = target: human recombinant BACE2 (Homo sapiens (Human), UniProt Q9Y5Z0); test: In vitro enzymatic BACE2 FRET assay; format: biochemical; settings: read-out: IC50 IP (μM) BACE2 enzyme
How it was run: as §1

[3] = system: Aβ40 in conditioned medium of cells stably expressing Amyloid Precursor Protein (APP); test: In vitro BACE-1 cell-based assay (Aβ40 sandwich ELISA); settings: read-out: IC50 IP (μM) BACE1 cell
How it was run: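 APP-expressing cells treated 24 h at 37 °C with compound in 10-point dose response (top 100 μM or 10 μM, 0.1% DMSO final). Secreted Aβ40 in conditioned medium quantified by sandwich ELISA (pAb40 capture, biotinylated 6E10 detection, time-resolved europium fluorescence); IC50 from percent inhibition versus concentration.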

[4] = target: Recombinant Cat D (Homo sapiens (Human), UniProt P07339); test: In vitro enzymatic Cathepsin D (Cat D) FRET assay; format: biochemical; settings: read-out: IC50 IP (μM) CatD
How it was run: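 Recombinant Cat D expressed in CHO cells, assayed in 0.05 M citrate pH 3.5 with 5 mM CHAPS and 10% DMSO final. Reaction started with 20 nM FRET peptide substrate, incubated one hour, then stopped by Tris buffer to neutral pH; fluorescence read at ex 500/em 580 nm.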

human recombinant BACE1, sequence (P56817 46-501): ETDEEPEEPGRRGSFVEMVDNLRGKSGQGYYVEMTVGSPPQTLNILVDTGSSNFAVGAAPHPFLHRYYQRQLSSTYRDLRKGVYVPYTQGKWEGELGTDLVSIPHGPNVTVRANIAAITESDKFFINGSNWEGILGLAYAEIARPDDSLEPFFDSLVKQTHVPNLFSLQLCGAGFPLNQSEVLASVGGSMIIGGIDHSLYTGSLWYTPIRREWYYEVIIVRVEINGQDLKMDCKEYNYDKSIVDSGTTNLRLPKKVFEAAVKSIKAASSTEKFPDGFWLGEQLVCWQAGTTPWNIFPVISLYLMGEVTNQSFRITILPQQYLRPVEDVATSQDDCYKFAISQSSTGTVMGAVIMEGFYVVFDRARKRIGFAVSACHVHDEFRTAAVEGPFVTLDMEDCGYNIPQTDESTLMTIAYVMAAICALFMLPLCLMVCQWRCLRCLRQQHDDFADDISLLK
Recombinant Cat D, sequence (P07339 65-412): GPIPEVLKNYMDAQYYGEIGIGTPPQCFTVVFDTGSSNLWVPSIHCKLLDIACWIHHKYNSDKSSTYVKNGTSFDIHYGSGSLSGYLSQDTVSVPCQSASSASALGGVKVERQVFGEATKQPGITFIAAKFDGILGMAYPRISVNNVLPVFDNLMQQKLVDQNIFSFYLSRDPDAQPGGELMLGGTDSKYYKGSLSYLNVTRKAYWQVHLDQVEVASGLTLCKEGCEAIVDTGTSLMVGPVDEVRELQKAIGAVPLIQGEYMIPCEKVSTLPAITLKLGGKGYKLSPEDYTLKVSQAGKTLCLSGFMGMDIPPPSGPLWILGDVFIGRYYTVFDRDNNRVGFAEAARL
human recombinant BACE2, sequence (Q9Y5Z0 63-518): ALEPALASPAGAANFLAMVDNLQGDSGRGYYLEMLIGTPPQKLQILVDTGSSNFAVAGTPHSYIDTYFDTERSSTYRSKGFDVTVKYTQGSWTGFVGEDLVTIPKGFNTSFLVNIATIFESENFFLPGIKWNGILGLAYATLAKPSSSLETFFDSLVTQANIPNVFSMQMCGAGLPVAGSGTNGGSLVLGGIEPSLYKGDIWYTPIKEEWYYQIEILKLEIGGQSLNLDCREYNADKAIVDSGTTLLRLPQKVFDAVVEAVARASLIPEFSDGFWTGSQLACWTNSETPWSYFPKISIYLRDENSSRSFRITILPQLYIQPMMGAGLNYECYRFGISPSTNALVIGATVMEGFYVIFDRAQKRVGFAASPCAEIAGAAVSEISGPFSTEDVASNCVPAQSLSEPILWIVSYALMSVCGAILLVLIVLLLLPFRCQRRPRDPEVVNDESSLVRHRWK

SMILES	IC50 [1]	IC50 [2]	IC50 [3]	IC50 [4]	IC50 ([1]; BACE1 FRET enzyme assay)	IC50 ([2]; BACE2 FRET enzyme assay)	IC50 ([3]; BACE1 cell-based assay)	IC50 ([4]; Cathepsin D FRET enzyme assay)
CNC(=O)[C@]12C[C@H]1[C@@](C)(c1cc(NC(=O)c3cnc(OCC(F)(F)C(F)F)cn3)cc(F)c1F)N=C(N)S2 [Example 963, (1S,5S,6S)-3-amino-5-(2,3-difluoro-5-(((5-(2,2,3,3-tetrafluoropropoxy)-2-pyrazinyl)carbonyl)amino)phenyl)-N,5-dimethyl-2-thia-4-azabicyclo[4.1.0]hept-3-ene-1-carboxamide]	0.000194 µM	0.0631 µM	0.0026 µM	267 µM	–	–	–	–
C#CCOc1cnc(C(=O)Nc2cnc(OC)c([C@@]3(C)N=C(N)S[C@@]4(C#N)C[C@H]43)c2)cn1 [Example 964, N-(5-((1S,5S,6S)-3-amino-1-cyano-5-methyl-2-thia-4-azabicyclo[4.1.0]hept-3-en-5-yl)-6-methoxy-3-pyridinyl)-5-(2-propyn-1-yloxy)-2-pyrazinecarboxamide]	0.000737 µM	0.00887 µM	0.00154 µM	98.9 µM	–	–	–	–
C[C@]1(c2cc(NC(=O)c3cnc(OCC(F)(F)F)cn3)ccc2F)N=C(N)S[C@@]2(C(=O)NC3CC3)C[C@H]21 [Example 800, (1S,5S,6S)-3-amino-N-cyclopropyl-5-(2-fluoro-5-(((5-(2,2,2-trifluoroethoxy)-2-pyrazinyl)carbonyl)amino)phenyl)-5-methyl-2-thia-4-azabicyclo[4.1.0]hept-3-ene-1-carboxamide]	0.000711 µM	0.0841 µM	0.00659 µM	293 µM	–	–	–	–
Cc1cc(OCc2ncco2)cnc1C(=O)Nc1ccc(F)c([C@@]2(C)N=C(N)S[C@@]3(CF)C[C@H]32)c1 [Example 652, N-(3-((1S,5S,6S)-3-amino-1-(fluoromethyl)-5-methyl-2-thia-4-azabicyclo[4.1.0]hept-3-en-5-yl)-4-fluorophenyl)-3-methyl-5-(1,3-oxazol-2-ylmethoxy)-2-pyridinecarboxamide]	0.00756 µM	0.142 µM	0.0256 µM	> 400 µM	–	–	–	–
CC#CCCOc1cnc(C(=O)Nc2ccc(F)c([C@@]3(C)N=C(N)S[C@@]4(COC)C[C@H]43)c2)cn1 [Example 1047, N-(3-((1S,5S,6S)-3-amino-1-(methoxymethyl)-5-methyl-2-thia-4-azabicyclo[4.1.0]hept-3-en-5-yl)-4-fluorophenyl)-5-(3-pentyn-1-yloxy)-2-pyrazinecarboxamide]	0.0054 µM	0.189 µM	0.015 µM	> 400 µM	–	–	–	–
C#CCOc1cnc(C(=O)Nc2cc(F)c(F)c([C@@]3(C)N=C(N)S[C@@]4(C#N)C[C@H]43)c2)c(C)c1 [Example 1016, N-(3-((1S,5S,6S)-3-amino-1-cyano-5-methyl-2-thia-4-azabicyclo[4.1.0]hept-3-en-5-yl)-4,5-difluorophenyl)-3-methyl-5-(2-propyn-1-yloxy)-2-pyridinecarboxamide]	0.00104 µM	0.00764 µM	0.0119 µM	> 400 µM	–	–	–	–
C#CCOc1ccc(C(=O)Nc2cc(F)c(F)c([C@@]3(C)N=C(N)S[C@@]4(CO)C[C@H]43)c2)nc1 [Example 71, N-(3-((1S,5S,6S)-3-amino-1-(hydroxymethyl)-5-methyl-2-thia-4-azabicyclo[4.1.0]hept-3-en-5-yl)-4,5-difluorophenyl)-5-(2-propyn-1-yloxy)-2-pyridinecarboxamide]	–	–	–	–	0.00047 µM	0.0375 µM	0.00156 µM	329 µM
CC(C)NC(=O)c1cnc2c(Nc3cnc(F)c([C@@]4(C)N=C(N)S[C@@]5(C(F)F)C[C@@H]45)c3)nccc2c1 [Example 656, 8-((5-((1S,5S,6S)-3-amino-1-(difluoromethyl)-5-methyl-2-thia-4-azabicyclo[4.1.0]hept-3-en-5-yl)-6-fluoro-3-pyridinyl)amino)-N-(1-methylethyl)-1,7-naphthyridine-3-carboxamide]	0.387 µM	2.35 µM	0.624 µM	998 µM	–	–	–	–
COC(=O)[C@]12C[C@H]1[C@@](C)(c1cc(NC(=O)c3ccc(Cl)cn3)cnc1F)N=C(N)S2 [Example 99, (1S,5S,6S)-methyl 3-amino-5-(5-(5-chloropicolinamido)-2-fluoropyridin-3-yl)-5-methyl-2-thia-4-azabicyclo[4.1.0]hept-3-ene-1-carboxylate]	–	–	–	–	0.00659 µM	0.00824 µM	0.0659 µM	1130 µM

Continued, values first:

IC50 [1]	IC50 [2]	IC50 [3]	IC50 [4]	IC50 ([1]; BACE1 FRET enzyme assay)	IC50 ([2]; BACE2 FRET enzyme assay)	IC50 ([3]; BACE1 cell-based assay)	IC50 ([4]; Cathepsin D FRET enzyme assay)	SMILES
0.000316 µM	0.091 µM	0.0133 µM	363 µM	–	–	–	–	Cc1nc(COc2cnc3c(Nc4cc(F)c(F)c([C@@]5(C)N=C(N)S[C@@]6(C(F)F)C[C@@H]56)c4)nccc3n2)no1 [Example 883, N-(3-((1S,5S,6S)-3-amino-1-(difluoromethyl)-5-methyl-2-thia-4-azabicyclo[4.1.0]hept-3-en-5-yl)-4,5-difluorophenyl)-2-((5-methyl-1,2,4-oxadiazol-3-yl)methoxy)pyrido[3,4-b]pyrazin-5-amine]
0.00169 µM	0.13 µM	0.0142 µM	1700 µM	–	–	–	–	COC[C@]12C[C@H]1[C@@](C)(c1cc(NC(=O)c3cnc(OCC(F)F)cn3)cc(F)c1F)N=C(N)S2 [Example 1025, N-(3-((1S,5S,6S)-3-amino-1-(methoxymethyl)-5-methyl-2-thia-4-azabicyclo[4.1.0]hept-3-en-5-yl)-4,5-difluorophenyl)-5-(2,2-difluoroethoxy)-2-pyrazinecarboxamide]
0.000878 µM	0.0244 µM	0.000961 µM	791 µM	–	–	–	–	[2H]C([2H])([2H])OC[C@]12C[C@H]1[C@@](C)(c1cc(Nc3nccc4nc(OCC#C)cnc34)cnc1F)N=C(N)S2 [Example 853, N-(5-((1S,5S,6S)-3-amino-5-methyl-1-(((~2~H_3_)methyloxy)methyl)-2-thia-4-azabicyclo[4.1.0]hept-3-en-5-yl)-6-fluoro-3-pyridinyl)-2-(2-propyn-1-yloxy)pyrido[3,4-b]pyrazin-5-amine]
0.0365 µM	0.0582 µM	0.0205 µM	2880 µM	–	–	–	–	COC[C@]12C[C@H]1[C@@](C)(c1cc(Nc3nccc4cc(OC)cnc34)cc(F)c1F)N=C(N)S2 [Example 629, N-(3-((1S,5S,6S)-3-amino-1-(methoxymethyl)-5-methyl-2-thia-4-azabicyclo[4.1.0]hept-3-en-5-yl)-4,5-difluorophenyl)-3-methoxy-1,7-naphthyridin-8-amine]
0.0668 µM	3.83 µM	1.3 µM	1100 µM	–	–	–	–	COC[C@]12C[C@H]1[C@@](C)(c1cc(Nc3nccc4cc(OCC(F)(F)C(F)F)cnc34)cc(F)c1F)N=C(N)S2 [Example 731, N-(3-((1S,5S,6S)-3-amino-1-(methoxymethyl)-5-methyl-2-thia-4-azabicyclo[4.1.0]hept-3-en-5-yl)-4,5-difluorophenyl)-3-(2,2,3,3-tetrafluoropropoxy)-1,7-naphthyridin-8-amine]
–	–	–	–	0.137 µM	3.75 µM	4.65 µM	494 µM	CC(C)Oc1cnc2c(Nc3cc(F)c(F)c([C@@]4(CF)N=C(N)S[C@H]5C[C@H]54)c3)nccc2n1 [Example 63, N-(3-((1S,5S,6S)-3-amino-5-(fluoromethyl)-2-thia-4-azabicyclo[4.1.0]hept-3-en-5-yl)-4,5-difluorophenyl)-2-(1-methylethoxy)pyrido[3,4-b]pyrazin-5-amine]
0.00778 µM	0.381 µM	0.0204 µM	911 µM	–	–	–	–	COC[C@]12C[C@H]1[C@@](C)(c1cc(Nc3nccc4nc(OCc5nc(C)no5)cnc34)cc(F)c1F)N=C(N)S2 [Example 882, N-(3-((1S,5S,6S)-3-amino-1-(methoxymethyl)-5-methyl-2-thia-4-azabicyclo[4.1.0]hept-3-en-5-yl)-4,5-difluorophenyl)-2-((3-methyl-1,2,4-oxadiazol-5-yl)methoxy)pyrido[3,4-b]pyrazin-5-amine]
0.00228 µM	0.0249 µM	0.00635 µM	467 µM	–	–	–	–	COC[C@]12C[C@H]1[C@@](C)(c1cc(NC(=O)c3ncc(OCc4ncco4)nc3C)cc(F)c1F)N=C(N)S2 [Example 863, N-(3-((1S,5S,6S)-3-amino-1-(methoxymethyl)-5-methyl-2-thia-4-azabicyclo[4.1.0]hept-3-en-5-yl)-4,5-difluorophenyl)-3-methyl-5-(1,3-oxazol-2-ylmethoxy)-2-pyrazinecarboxamide]
0.00572 µM	0.579 µM	0.0331 µM	> 400 µM	–	–	–	–	COC[C@]12C[C@H]1[C@@](C)(c1cc(NC(=O)c3cnc(OCC4COC4)cn3)cc(F)c1F)N=C(N)S2 [Example 1022, N-(3-((1S,5S,6S)-3-amino-1-(methoxymethyl)-5-methyl-2-thia-4-azabicyclo[4.1.0]hept-3-en-5-yl)-4,5-difluorophenyl)-5-(3-oxetanylmethoxy)-2-pyrazinecarboxamide]

From patent publication US20160046618A1, “Cyclopropyl Fused Thiazin-2-Amine Compounds as Beta-Secretase Inhibitors and Methods of Use” (AMGEN INC., priority 2014, published 2016)
